In brackets after ≈: the same amount, converted by molar mass.

In one assay the test system is Plasmodium falciparum. Nature of the assay: Antiplasmodial activity against chloroquine and pyrimethamine-resistant Plasmodium falciparum K1 infected in human erythrocytes after 48 hrs by [3]H-hypoxanthine incorporation assay. Type of assay: functional, organism-based. The settings on record: K1, 48 h.
The subject of the next assay is L6. Nature of the assay: Cytotoxicity against rat L6 cells after 72 hrs by alamar blue assay. Type of assay: cell-based. The following applies: L6, 72 h.

The term IC50 denotes the concentration at which inhibition is half-maximal. For `O=C1C=CC(O)(CC(=O)OC[C@H]2O[C@@H](OC(=O)CC3(O)C=CC(=O)C=C3)[C@H](OC(=O)Cc3ccccc3)[C@@H](OC(=O)Cc3ccccc3)[C@@H]2O)C=C1` [JACAGLABROSIDE A], the half-maximal inhibitory concentration (IC50) was 1.02 µg/mL (≈ 1.42 µM) in the assay on Plasmodium falciparum and 8.3 µg/mL (≈ 11.6 µM) in the assay on L6.

For `O=C1C=CC(O)(CC(=O)OC[C@H]2O[C@@H](OC(=O)CC3(O)C=CC(=O)C=C3)[C@H](OC(=O)Cc3ccccc3)[C@@H](O)[C@@H]2O)C=C1` [JACAGLABROSIDE B], the values for the concentration for half-maximal inhibition (IC50) with Plasmodium falciparum and in the assay on L6 were 0.56 µg/mL (≈ 0.936 µM) and greater than 90 µg/mL, respectively.

Take `O=C1C=CC(O)(CC(=O)OC[C@H]2O[C@@H](OC(=O)CC3(O)C=CC(=O)C=C3)[C@H](OC(=O)Cc3ccc(O)cc3)[C@@H](OC(=O)Cc3ccccc3)[C@@H]2O)C=C1` [JACAGLABROSIDE C]: the IC50 with Plasmodium falciparum turned out to be 0.56 µg/mL (≈ 0.764 µM); in the assay on L6, 87 µg/mL (≈ 119 µM).

For `O=C1C=CC(O)(CC(=O)OC[C@H]2O[C@@H](OC(=O)CC3(O)C=CC(=O)C=C3)[C@H](OC(=O)Cc3ccccc3)[C@@H](OC(=O)Cc3ccc(O)cc3)[C@@H]2O)C=C1` [JACAGLABROSIDE D], the IC50 with Plasmodium falciparum amounted to 0.55 µg/mL (≈ 0.751 µM); with L6, 84.8 µg/mL (≈ 116 µM).

Turning to `COC(=O)CC1(O)C=CC(=O)C=C1` [JACARANONE], the IC50 was 1.32 µg/mL (≈ 7.25 µM) in the assay on Plasmodium falciparum and 1.06 µg/mL (≈ 5.82 µM) with L6.

Turning to `O=C(O)Cc1ccccc1` [PHENYLACETIC ACID], the results for the IC50 in the assay on Plasmodium falciparum and in the assay with L6 were greater than 5 µg/mL and greater than 90 µg/mL, respectively.

Values taken from ChEMBL document CHEMBL1157092, “Jacaranone-derived glucosidic esters from Jacaranda glabra and their activity against Plasmodium falciparum” (J Nat Prod, 2010).
